For 17 compounds, IC50 and AUC results are on record in EP1038864A1, “NOVEL METALLOPROTEINASE INHIBITORS” (FUJI YAKUHIN KOGYO KABUSHIKI KAISHA, priority 1997, dated 1999).

Read-outs that look alike come from different tables or passages of the source.

Data set [1] has as its target T1, human fibroblast collagenase (Homo sapiens, UniProt P03956).
T1 sequence (P03956 100-469): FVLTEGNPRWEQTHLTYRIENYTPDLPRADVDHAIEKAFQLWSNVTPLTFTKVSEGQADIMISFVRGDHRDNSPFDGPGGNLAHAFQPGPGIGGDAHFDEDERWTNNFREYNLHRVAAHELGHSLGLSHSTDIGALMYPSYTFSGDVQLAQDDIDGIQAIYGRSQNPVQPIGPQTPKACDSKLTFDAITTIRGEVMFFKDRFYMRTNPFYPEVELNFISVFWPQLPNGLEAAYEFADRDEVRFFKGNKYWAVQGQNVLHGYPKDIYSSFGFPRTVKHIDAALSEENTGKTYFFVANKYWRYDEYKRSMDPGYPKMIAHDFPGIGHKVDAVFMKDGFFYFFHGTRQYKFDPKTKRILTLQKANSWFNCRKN
As to the kind of experiment: Assay for inhibition of collagenase (fluorescein-labeled bovine type I collagen substrate). It counts as biochemical. On the procedure: (§1) Described below are assays for biological activities of the compounds according to the present invention, formulations, dosage forms and dosage levels thereof, and miscellaneous matters. The efficacy of the compounds represented by the formula (I) according to the present invention as inhibitors of human fibroblast collagenase (metalloproteinase involved in the breakdown of tissues) is determined by a procedure based on the method of Y. Murawaki et al., Journal of Hepatology, 18, p328-334 (1993). The efficacy of the compounds (I) of this invention as inhibitors of human fibroblast stromelysin is determined by a procedure based on the method of S. S. Twining, Anal. Biochem., 143, p30 (1984). The assay results obtained are shown hereinbelow, together with biological examples which illustrate embodiments of the assay protocols.
The efficacy of compounds of the present invention to act as inhibitors of human fibroblast collagenase was determined by the procedure of Y. Murawaki et al. (Journal of Hepatology, 18, p.328-334, 1993), compared with a reference compound.
Procollagenase was activated by incubation with 2 mM 4-aminophenylmercuric acetate (APMA) at 35°C for 2 hours. The inhibition was assayed using, as a substrate, fluorescein-labeled bovine type I collagen. To a solution of the substrate (0.5 mg/ml) in a 50 mM Tris-HCl buffer, pH 7.5, containing 0.4M aqueous sodium chloride and 10 mM aqueous […] was added the activated collagenase. The resultant solution was incubated at 35°C for 2 hours. The digestion of the substrate with the enzyme was stopped by addition of 80 mM o-phenanthroline, followed by addition of a porcine elastase solution formed by dissolving 25 µg/ml porcine elastase in the aforementioned Tris-HCl buffer. The mixture was incubated at 37°C for 10 minutes. To the resulting solution was added 70% ethanol, and a 170 mM Tris-HCl buffer, pH 9.5, containing 0.67M aqueous sodium chloride. Undigested substrates were precipitated by centrifugation at 3000 x g for 20 minutes. The supernatant was collected and the fluorescence was read using an excitation wavelength of 495 nm and an emission wavelength of 520 nm. The inhibitory potency of the compounds was calculated. […] The resulting assay data for representative examples are shown in Table 1, compared with the reference compound. […]

Data set [2] addresses human fibroblast stromelysin (Homo sapiens, UniProt P08254). Description: Assay for inhibition of stromelysin (fluorescein-labeled casein substrate). The data set is classed as biochemical. The protocol: as §1
The efficacy of compounds of the present invention to act as inhibitors of human fibroblast stromelysin was determined by the procedure of Twining (Anal. Biochem., 143, p.30, 1984), compared with a reference compound.
Prostromelysin was activated by incubation with 20 µg/ml human plasmin at 37°C for 2 hours, and the reaction was stopped by addition of 2.8 mg/ml aqueous diisopropyl fluorophosphate. The inhibition was assayed using, as a substrate, fluorescein-labeled casein. To a solution of the substrate (1 mg/ml) in a 50 mM Tris-HCl buffer, pH 7.8, containing 10mM aqueous calcium chloride was added the activated stromelysin. The resultant solution was incubated at 37°C for 2 hours. The digestion of the substrate with the enzyme was stopped by addition of 5% trichloroacetic acid. Undigested substrates were precipitated by centrifugation at 3000 x g for 20 minutes. The supernatant was collected, followd by additon of a 0.5M Tris-HCl buffer, pH 8.5. The fluorescence was read using an excitation wavelength of 495 nm and an emission wavelength of 520 nm. The inhibitory potency of the compounds was calculated. […] The resulting assay data for representative examples are shown in Table 2, compared with the reference compound.

In another data set the target is TNF-α Convertase (Homo sapiens, UniProt P78536). Description: Assay for inhibition of TNF-α production in LPS-stimulated, PMA-differentiated U937 cells.
Another data set is described as follows: in vivo. Conditions: rat, po, 100 mg/kg.
Setting [3] is: activated human fibroblast procollagenase, 35°C, 2 hours, pH 7.5, read-out: Inhibition of MMP-1.
Setting [4] is: plasmin-activated human fibroblast prostromelysin, 37°C, 2 hours, pH 7.8, read-out: Inhibition of MMP-3.
Where [5] appears, read: read-out: Inhibition of MMP-3, plasmin-activated human fibroblast prostromelysin, 37°C, 2 hours, pH 7.8.

Chain of human fibroblast stromelysin (P08254 100-477): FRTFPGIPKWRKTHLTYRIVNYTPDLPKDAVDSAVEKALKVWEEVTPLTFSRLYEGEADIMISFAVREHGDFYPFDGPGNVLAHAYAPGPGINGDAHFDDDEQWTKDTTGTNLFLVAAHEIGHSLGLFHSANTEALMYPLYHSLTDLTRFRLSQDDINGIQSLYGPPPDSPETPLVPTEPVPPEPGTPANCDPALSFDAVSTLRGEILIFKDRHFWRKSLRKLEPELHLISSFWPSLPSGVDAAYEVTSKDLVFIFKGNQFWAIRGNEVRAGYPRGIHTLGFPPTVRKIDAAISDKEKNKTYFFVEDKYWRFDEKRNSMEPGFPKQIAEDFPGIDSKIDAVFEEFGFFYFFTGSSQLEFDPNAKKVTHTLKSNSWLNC
Chain of TNF-α Convertase (P78536 215-824): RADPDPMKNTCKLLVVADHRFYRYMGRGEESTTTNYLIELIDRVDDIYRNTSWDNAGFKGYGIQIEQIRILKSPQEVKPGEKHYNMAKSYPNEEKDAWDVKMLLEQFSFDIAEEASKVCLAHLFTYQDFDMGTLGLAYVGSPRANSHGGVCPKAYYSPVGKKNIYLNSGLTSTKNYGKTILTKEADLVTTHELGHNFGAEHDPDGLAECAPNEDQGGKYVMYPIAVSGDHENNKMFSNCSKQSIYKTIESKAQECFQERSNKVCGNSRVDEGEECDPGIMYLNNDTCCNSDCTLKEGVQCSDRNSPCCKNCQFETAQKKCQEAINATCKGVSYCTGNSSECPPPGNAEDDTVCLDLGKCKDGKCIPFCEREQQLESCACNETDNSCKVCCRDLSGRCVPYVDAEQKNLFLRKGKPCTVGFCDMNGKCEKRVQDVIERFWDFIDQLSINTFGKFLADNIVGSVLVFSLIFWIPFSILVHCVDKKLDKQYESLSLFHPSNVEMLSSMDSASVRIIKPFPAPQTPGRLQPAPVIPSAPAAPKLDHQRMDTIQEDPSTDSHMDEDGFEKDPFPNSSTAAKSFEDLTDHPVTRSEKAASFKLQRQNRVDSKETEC
Experimental for TNF-α Convertase: Human monocytic leukemia cell line U937 (human histiocytic lymphoma cell line U937) cells were cultured in RPMI 1640 (Nissui Pharmaceutical Co., Ltd., Japan) supplemented with 5% fetal calf serum (FCS; IBL, Japan) in an incubator at 37°C under 5% CO2, then transferred to multiplates at a density of 1 x 10^6 cells/1 ml/well, and incubated overnight in the presence of 10^-7 M phorbol 12-myristate 13-acetate (Wako Pure Chemical Industries, Ltd., Japan) to form differentiated macrophage-like cells. To the resultant cells was added E. coli O127:B8 lipopolysaccaride (LPS, 0.1 µg/ml; Sigma) alone or along with each compound of the present invention, and the treated cells were then incubated for 6 hours in an incubator under 5% CO2 at 37°C. After the incubation, the cultures were collected and centrifuged at 3000 rpm for 10 minutes to give supernatants which were diluted with purified water and then assayed using a TNF-α assay kit, Genzyme (Table 3).
Experimental for in vivo: Each compound of the present invention was dissolved in distilled water for injection and orally administered to rats (Lewis strain line, male, body weight: about 200 g) at a dose of 100mg/kg. From 30 minutes to 4 hours after the administration, a series of blood chronologically collected from rat fundus oculi were centrifuged (3000rpm for 10 minutes at 4°C) to give plasma samples. Each plasma sample (200 µl) was filtered through an ultrafiltration membrane by centrifugation at 1500 x G for 3 minutes using a micropartition UF unit (Centrifree-MPS-3: 30,000 MW cut-off, Amicon Corp., Beverly, MA). […] The reaction was stopped by adding 900 µl of 3% aqueous acetic acid to the reaction mixture. The fluorescence of the resulting solution was read using an excitation wavelength of 325 nm and an emission wavelength of 393 nm. The concentration of each test compound in rat plasma samples was calculated using a standard curve which was prepared based on a variety of doses.

With `CNC(=O)[C@H](CCCNC(=N)N)NC(=O)[C@H](CC(C)C)C(CC(C)C)C(=O)NO` (single isomer, unassigned) [Compound No. 24, N^a-[4-(Hydroxyamino)-2(R),3(R or S)-diisobutylsuccinyl]-L-arginine N-methylamide · 1 acetate], the IC50 in data set [1] came to 5 nM; in data set [2] it was 18 nM; against TNF-α Convertase, 480 nM.

Take `CC(=N)NCCCCC(NC(=O)C(CC(C)C)C(CCCc1ccccc1)C(=O)NO)C(=O)NCCO` (single isomer, unassigned) [Compound No. 36, N^a-[4-(Hydroxyamino)-2(R)-isobutyl-3(R or S)-(3-phenylpropyl)-succinyl]-N^e-acetimidoyl-L-lysine N-(2-hydroxyethyl)amide · 1 acetate]: the IC50 in data set [1] (setting [3]) was found to be 14 nM; in data set [2] (setting [4]), 9 nM.

`CNC(=O)C(CCCNC(=N)N)NC(=O)C(CC(C)C)C(Cc1ccc(CNS(=O)(=O)c2ccc(C)cc2)cc1)C(=O)NO` (single isomer, unassigned) [Compound No. 50, N^a-[4-(Hydroxyamino)-2(R)-isobutyl-3(R or S)-[p-(p-toluenesulfonamidomethyl)benzyl]succinyl]-L-arginine N-methylamide · 1 acetate]: the IC50 is 13 nM in data set [1] (setting [3]), 9 nM in data set [2] (setting [4]) and 599 nM at TNF-α Convertase.

As for `CNC(=O)C(CCCNC(=N)N)NC(=O)C(CC(C)C)C(Cc1ccc(CN2C(=O)c3ccccc3C2=O)cc1)C(=O)NO` (single isomer, unassigned) [Compound No. 51, N^a-[4-(Hydroxyamino)-2(R)-isobutyl-3(R or S)-(p-phthalimidomethylbenzyl)succinyl]-L-arginine N-methylamide · 1 acetate], the values for the IC50 (in data set [1] (setting [3]); in data set [2] (setting [4]); on TNF-α Convertase) were 9 nM, 2 nM and 426 nM, respectively.

Regarding `CNC(=O)[C@H](CCCCN)NC(=O)[C@H](CC(C)C)C(CCCc1ccc(CN)cc1)C(=O)NO` (single isomer, unassigned) [Compound No. 61, N^a-[4-(Hydroxyamino)-2(R)-isobutyl-3(R or S)-(3-(p-aminomethylphenyl)propyl]succinyl]-L-lysine N-methylamide· 2 acetate], the IC50 in data set [2] (setting [5]) is 23 nM; on TNF-α Convertase (read-out: Inhibition of TACE, U937 cells, LPS 0.1 µg/ml, 6 hours, TNF-α in supernatant by assay kit), 1100 nM. The same compound gave an AUC at 4 h in the data set “in vivo” of 13800 ng·h/mL.

In the case of `CCCCOCCC(C(=O)NO)[C@@H](CC(C)C)C(=O)N[C@@H](CCCCN)C(=O)NC` (single isomer, unassigned) [Compound No. 69, N^a-[4-(Hydroxyamino)-2(R)-isobutyl-3(R or S)-(2-n-butyloxyethyl)succinyl]-L-lysine N-methylamide· 1 acetate], the IC50 in data set [2] (setting [5]) was found to be 20 nM. Also, the AUC at 4 h in “in vivo” came out at 3340 ng·h/mL.

For the compound `CNC(=O)[C@H](CCCCN)NC(=O)[C@H](CC(C)C)C(CCCc1cccc(C(=O)OC)c1)C(=O)NO` (single isomer, unassigned) [Compound No. 71, N^a-[4-(Hydroxyamino)-2(R)-isobutyl-3(R or S)-[3-(m-methoxycarbonylphenyl)propyl]succinyl]-L-lysine N-methylamide· 1 acetate], the IC50 was 4 nM in data set [1] (setting [3]) and 352 nM at TNF-α Convertase.

`CNC(=O)[C@H](CCCCN)NC(=O)[C@H](CC(C)C)C(CCCc1ccc(O)cc1)C(=O)NO` (single isomer, unassigned) [Compound No. 72, N^a-[4-(Hydroxyamino)-2(R)-isobutyl-3(R or S)-[3-(p-hydroxyphenyl)propyl]succinyl]-L-lysine N-methylamide· 1 acetate]: the AUC at 4 h in the data set “in vivo” was determined as 4040 ng·h/mL. Moreover, the IC50 at TNF-α Convertase was 250 nM.

As to `CNC(=O)C(CCCN)NC(=O)C(CC(C)C)C(CCCc1ccc(CNC(=N)N)cc1)C(=O)NO` (single isomer, unassigned) [Compound No. 81, N^a-[4-(Hydroxyamino)-2(R)-isobutyl-3(R or S)-[3-(p-guanidomethylphenyl)propyl]succinyl]-L-ornithine N-methylamide · 2 acetate], the IC50 in data set [1] (setting [3]) stood at 13 nM; on TNF-α Convertase it was 737 nM.

Take `CNC(=O)C(CCCCN)NC(=O)C(CC(C)C)C(CCCN1C(=O)N(C)C(C)(C)C1=O)C(=O)NO` (single isomer, unassigned) [Compound No. 82, N^a-[4-(Hydroxyamino)-2(R)-isobutyl-3(R or S)-(3-(3,4,4-trimethyl-2,5-dioxo-imidazolidin-1-yl)propyl]succinyl]-L-lysine N-methylamide]: the IC50 in data set [1] (setting [3]) worked out at 4 nM.

In the case of `CC(C)CC(C(=O)NO)[C@@H](CC(C)C)C(=O)N[C@@H](Cc1ccc(CN)cc1)C(=O)NCCC(=O)O` (single isomer, unassigned) [Compound No. 84, N^a-[4-(Hydroxyamino)-2(R),3(R or S)-diisobutylsuccinyl]-4'-aminomethyl-L-phenylalanine N-(2-carboxyethyl)amide· 1 acetate], the IC50 in data set [1] (setting [3]) was found to be 11 nM.

`CNC(=O)C(CCCNC(=N)N)NC(=O)C(CC(C)C)C(C)C(=O)NO` [Compound No. 25, N^a-[4-(Hydroxyamino)-2(R)-isobutyl-3(RS)-methylsuccinyl]-L-arginine N-methylamide · 1 acetate]: the IC50 in data set [1] (setting [3]) was determined as 10 nM.

Take `CNC(=O)C(CCNC(=N)N)NC(=O)C(CC(C)C)C(CC(C)C)C(=O)NO` [Compound No. 27, N^4-[3-Guanidino-1(S)-methylcarbamoylpropyl]-N^1-hydroxy-3(R),2(RS)-diisobutylsuccinamide · 1 acetate]: the results for the IC50 in data set [1] (setting [3]) and in data set [2] (setting [4]) were 7 nM and 60 nM, respectively.

As to `CNC(=O)C(CCCCNC(C)=N)NC(=O)C(CC(C)C)C(CCCc1ccccc1)C(=O)NO` [Compound No. 30, N^a-[4-(Hydroxyamino)-2(R)-isobutyl-3(RS)-(3-phenylpropyl)-succinyl]-N^e-acetimidoyl-L-lysine N-methylamide · 1 acetate], the IC50 in data set [1] (setting [3]) was found to be 10 nM; in data set [2], 12 nM.

Take `CC(=N)NCc1ccc(CC(NC(=O)C(CC(C)C)C(CC(C)C)C(=O)NO)C(=O)NCCO)cc1` [Compound No. 91, N^a-[4-(Hydroxyamino)-2(R),3(RS)-diisobutylsuccinyl]-4'-acetimidoyliminomethyl-L-phenylalanine N-(2-hydroxyethyl)amide· 2 acetate]: the IC50 in data set [1] (setting [3]) turned out to be 17 nM.

Consider `CCCOC[C@H](C(=O)N[C@@H](Cc1ccc(OC)cc1)C(=O)NC)[C@H](CSC(C)C)C(=O)NO` [Reference Compound No. 1, N-[4-(N-hydroxyamino)-2(R)-n-propyloxymethyl-3(S)-isopropyl-thiomethylsuccinyl)-O-methyl-L-tyrosine-N-methylamide, reference compound], for which, in data set [1] (setting [3]), the IC50 amounted to 11 nM.

Turning to `CNC(=O)[C@@H](NC(=O)[C@H](CC(C)C)[C@H](O)C(=O)NO)C(C)(C)C` [Reference Compound No. 2, reference compound], the AUC at 4 h in the data set “in vivo” came out at 1570 ng·h/mL.

Broadly, the AUC is the area under the concentration-time curve, a measure of exposure. A high value points to high exposure.
